Key:
[1] = test system: Biomphalaria glabrata; assay: Molluscicidal activity against Biomphalaria glabrata after 24 hrs; assay type: functional
[2] = test system: N2a; assay: Cytotoxicity against mouse Neuro2a cells at 35 uM; assay type: functional, cell-based
[3] = test system: NCI-H460; assay: Cytotoxicity against human H460 cells at 35 uM; assay type: functional, cell-based
[4] = Toxicity in brine shrimp; assay type: organism-based; settings: artemia, in vivo

With CC[C@@H]1C[C@@H]2C[C@H](O[C@@H]3OC[C@@H](OC)[C@H](OC)[C@H]3OC)C(C)(C)[C@H](CC(=O)O[C@H](CC)C[C@@H]3C[C@H](O[C@@H]4OC[C@@H](OC)[C@H](OC)[C@H]4OC)C(C)(C)[C@H](CC(=O)O1)O3)O2 [CYANOLIDE A] the LC50 [1] was 1.2 µM, the Activity [2] was “Not toxic” and the Activity [3] was “Not toxic”. The LC50 [4] was 10.8 µM.
